Source: ChEMBL document CHEMBL4627371, “Discovery of novel heat shock protein (Hsp90) inhibitors based on luminespib with potent antitumor activity” (Bioorg Med Chem Lett, 2020)

Assays:
[1] = target: T1, Heat shock protein HSP90 (Homo sapiens, UniProt P07900+P08238); test: Inhibition of HSP90 ATPase activity (unknown origin); format: protein assay
[2] = test system: HCT-116; test: Cytotoxicity against human HCT116 cells assessed as cell growth inhibition; format: functional, cell-based
[3] = target: T1, Heat shock protein HSP90; test: Inhibition of HSP90 (unknown origin) assessed as HER2 degradation by cell-based assay
[4] = test system: A2780; test: Cytotoxicity against human A2780 cells assessed as cell growth inhibition; format: functional, cell-based

Structure (SMILES) | IC50 [1] [nM] | IC50 [2] [nM] | IC50 [3] [nM] | IC50 [4] [nM]
CCNC(=O)c1noc(-c2cc(C(C)C)c(O)cc2O)c1-c1cc(COCC(=O)OC)no1 | 443 | 262 |  | 
CCNC(=O)c1noc(-c2cc(C(C)C)c(O)cc2O)c1-c1cc(CN)no1 | 674 | 84 | 171 | 
CCNC(=O)c1noc(-c2cc(C(C)C)c(O)cc2O)c1-c1cc(CN2CCOCC2)no1 | 595 | 28 | 50 | 
CCNC(=O)c1noc(-c2cc(C(C)C)c(O)cc2O)c1-c1cnn(CC)c1 | 532 | 26 | 13 | 30
CCNC(=O)c1noc(-c2cc(C(C)C)c(O)cc2O)c1-c1cnn(C(C)C)c1 | 542 | 21 | 19 | 21
CCCNCc1cc(-c2c(C(=O)NCC)noc2-c2cc(C(C)C)c(O)cc2O)on1 | 465 | 117 | 24 | 
CCNC(=O)c1noc(-c2cc(C(C)C)c(O)cc2O)c1-c1cc(CN2CCN(C)CC2)no1 | 572 | 340 |  | 
CCNC(=O)c1noc(-c2cc(C(C)C)c(O)cc2O)c1-c1cc(COS(C)(=O)=O)no1 | 476 | 400 |  | 
CCNC(=O)c1noc(-c2cc(C(C)C)c(O)cc2O)c1-c1cc(CNCCO)no1 | 975 | 111 |  | 
CCNC(=O)c1noc(-c2cc(C(C)C)c(O)cc2O)c1-c1cc(CNC(C)=O)no1 | 500 | 167 | 71 | 
CCNC(=O)c1noc(-c2cc(C(C)C)c(O)cc2O)c1-c1cc(CC#N)no1 | 470 | 79 |  | 
CCCN(CCC)Cc1cc(-c2c(C(=O)NCC)noc2-c2cc(C(C)C)c(O)cc2O)on1 | 413 | 183 | 117 | 
CCNC(=O)c1noc(-c2cc(C(C)C)c(O)cc2O)c1-c1cc(CNC)no1 | 436 | 164 |  | 
CCNC(=O)c1noc(-c2cc(C(C)C)c(O)cc2O)c1-c1cc(C(=O)N2CCSCC2)no1 | 566 |  |  | 207
CCNC(=O)c1noc(-c2cc(C(C)C)c(O)cc2O)c1-c1ccn(C)n1 | 522 | 16 | 16 | 12
CCNC(=O)c1noc(-c2cc(C(C)C)c(O)cc2O)c1-c1cnn(C)c1 | 482 | 41 | 19 | 20
CCNC(=O)c1noc(-c2cc(C(C)C)c(O)cc2O)c1-c1ccn(CC)n1 | 553 | 25 | 12 | 13
CCNC(=O)c1noc(-c2cc(C(C)C)c(O)cc2O)c1-c1cc(C(=O)N2CCOCC2)no1 | 583 | 60 | 52 | 85
CCNC(=O)c1noc(-c2cc(C(C)C)c(O)cc2O)c1-c1cc(CNC(=O)CC)no1 | 382 | 78 | 50 | 
CCNC(=O)c1noc(-c2cc(C(C)C)c(O)cc2O)c1-c1cc(COCC(N)=O)no1 | 452 | 97 | 50 | 
CCNC(=O)c1noc(-c2cc(C(C)C)c(O)cc2O)c1-c1cc(COCC(=O)O)no1 | 1280 |  |  | 
CCNC(=O)c1noc(-c2cc(C(C)C)c(O)cc2O)c1-c1cc(C(=O)O)no1 | 1870 |  |  | 20000
CCNC(=O)c1noc(-c2cc(C(C)C)c(O)cc2O)c1-c1cc(C(=O)OCC)no1 | 447 |  |  | 9000
CCCn1ccc(-c2c(C(=O)NCC)noc2-c2cc(C(C)C)c(O)cc2O)n1 | 584 | 49 | 24 | 27
C=CCNCc1cc(-c2c(C(=O)NCC)noc2-c2cc(C(C)C)c(O)cc2O)on1 | 435 |  | 67 | 
